Results reported in patent US10611740B2, “Aryl dihydro-2H-benzo[b][1,4]oxazine sulfonamide and related compounds for use as agonists of RORγ and the treatment of disease” (Lycera Corporation, priority 2015, dated 2020).

Legend:
[1] = target: T1, RORγ-LBD (Homo sapiens, UniProt P51449); assay: RORγ-Ligand Binding Domain (LBD) TR-FRET Assay; format: biochemical;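 for TR-FRET Assay Max Response: 665/615 nm ratio relative to signal without ursolic acid or compound set at 100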
T1 construct: made in house; host or cells: SF9 cells (baculovirus)
T1 sequence (P51449 269-508 limits assumed): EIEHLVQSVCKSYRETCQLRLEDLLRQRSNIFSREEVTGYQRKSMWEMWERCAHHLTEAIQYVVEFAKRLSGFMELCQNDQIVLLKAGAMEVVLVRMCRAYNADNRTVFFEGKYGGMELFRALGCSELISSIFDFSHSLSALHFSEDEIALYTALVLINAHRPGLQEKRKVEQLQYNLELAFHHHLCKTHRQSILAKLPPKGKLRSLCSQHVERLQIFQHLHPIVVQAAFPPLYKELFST
Method in brief: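 Lysate from SF9 cells expressing His-RORγ-LBD is diluted to about 3 nM final in 50 mM Tris pH 7.0 assay buffer. A biotin-tagged SRC1 LXXLL peptide goes in at 200 nM final, plus ursolic acid at 2 μM final. Test compounds carry 1% DMSO final; signal read by TR-FRET.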

[2] = target: T2, Gal4-RORγ-LBD (Homo sapiens, UniProt P51449); assay: Gal4-RORγ Luciferase Reporter Assay in HEK-293T Cells; format: cell-based; conditions: HEK-293 cells
T2 construct: expressed in transfected cells; host or cells: HEK-293 cells (pcDNA3.1neo plasmid)
T2 sequence (P51449 269-508 limits assumed): T1 sequence (P51449 269-508 limits assumed)
Method in brief: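 In transfected HEK-293 cells (Gal4-RORγ-LBD, Gal4-luciferase), test agents with 2 μM ursolic acid were incubated overnight at 37 °C before luminescent detection. Values are relative to the ursolic-acid-free, compound-free signal (100).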

[3] = luciferase reporter, with 2 μM ursolic acid

EC50 [1] [nM] | EC50 [2, 3] [nM] | EC50 ([2]; 2 μM ursolic acid) [nM] | SMILES | TR-FRET Assay Max Response [1] | Gal4-RORγ Assay Max Response [2, 3] | Gal4-RORγ Assay Max Response ([2]; 2 μM ursolic acid)
< 500 | < 500 | – | COc1cc(F)cc(-c2ccc3c(c2)N(S(=O)(=O)c2cccc(C(F)(F)F)c2)C[C@H](CNC(=O)C(C)(C)O)O3)c1F [Compound 30L, (S)-N-((6-(2,5-difluoro-3-methoxyphenyl)-4-((3-(trifluoromethyl)phenyl)sulfonyl)-3,4-dihydro-2H-benzo[b][1,4]oxazin-2-yl)methyl)-2-hydroxy-2-methylpropanamide] | **** (The symbol “****” indicates a value greater than 200) | * (The symbol “*” indicates a value in the range of 25 to 90) | –
< 500 | < 500 | – | O=c1[nH]nc(CC[C@H]2CN(S(=O)(=O)c3cccc(C(F)(F)F)c3)c3cc(-c4cc(F)ccc4F)ccc3O2)o1 [Compound 11, (S)-5-(2-(6-(2,5-difluorophenyl)-4-((3-(trifluoromethyl)phenyl)sulfonyl)-3,4-dihydro-2H-benzo[b][1,4]oxazin-2-yl)ethyl)-1,3,4-oxadiazol-2(3H)-one] | **** (The symbol “****” indicates a value greater than 200) | ** (The symbol “**” indicates a value in the range of greater than 90 to 150) | –
< 500 | – | < 500 | CC(=O)N[C@H]1C[C@H](C[C@H]2CN(S(=O)(=O)c3cccc(C(F)(F)F)c3)c3cc(-c4cc(F)cc(OC(F)F)c4)ccc3O2)C1 [Compound 60D, N-((1S,3r)-3-(((S)-6-(3-(difluoro-methoxy)-5-fluoro-phenyl)-4-((3-(trifluoro-methyl)-phenyl)sulfonyl)-3,4-dihydro-2H-benzo[b][1,4]-oxazin-2-yl)methyl)cyclo-butyl)-acetamide] | *** (The symbol “***” indicates a value in the range of greater than 150 to 200) | – | * (The symbol “*” indicates a value in the range of 25 to 90)
< 500 | < 500 | – | COc1cccc(-c2ccc3c(c2)N(S(=O)(=O)c2cccc(C(F)(F)F)c2)C[C@H](CCC(=O)N2CCS(=O)(=O)CC2)O3)c1 [Compound 23M, (S)-1-(1,1-dioxidothio-morpholino)-3-(6-(3-methoxyphenyl)-4-((3-(trifluoromethyl)phenyl)sulfonyl)-3,4-dihydro-2H-benzo[b][1,4]-oxazin-2-yl)propan-1-one] | **** (The symbol “****” indicates a value greater than 200) | *** (The symbol “***” indicates a value in the range of greater than 150 to 200) | –
< 500 | < 500 | – | COc1cccc(-c2cc(F)c3c(c2)N(S(=O)(=O)c2cccc(C(F)(F)F)c2)C[C@H](CCC(=O)N2CCC(C(=O)O)CC2)O3)c1 [Compound 23H, (S)-1-(3-(8-fluoro-6-(3-methoxyphenyl)-4-((3-(trifluoromethyl)phenyl)sulfonyl)-3,4-dihydro-2H-benzo[b][1,4]oxazin-2-yl)propanoyl)piperidine-4-carboxylic acid] | **** (The symbol “****” indicates a value greater than 200) | ** (The symbol “**” indicates a value in the range of greater than 90 to 150) | –
< 500 | < 500 | – | CC(C)(O)C(=O)NCC[C@H]1CN(S(=O)(=O)c2cccc(C(F)(F)F)c2)c2cc(-c3cccc(C(F)(F)F)n3)ccc2O1 [Compound 30B, (S)-2-hydroxy-2-methyl-N-(2-(4-((3-(trifluoromethyl)phenyl)-sulfonyl)-6-(6-(trifluoromethyl)-pyridin-2-yl)-3,4-dihydro-2H-benzo[b][1,4]oxazin-2-yl)ethyl)propanamide] | **** (The symbol “****” indicates a value greater than 200) | ** (The symbol “**” indicates a value in the range of greater than 90 to 150) | –
< 500 | – | < 500 | CC[C@@H](C[C@H]1CN(S(=O)(=O)c2cccc(C(F)(F)F)c2)c2cc(-c3cc(F)cc(F)c3Cl)ccc2O1)C(=O)O [Compound 46G, (S)-2-(((S)-6-(2-chloro-3,5-difluorophenyl)-4-((3-(trifluoro-methyl)phenyl)sulfonyl)-3,4-dihydro-2H-benzo[b][1,4]oxazin-2-yl)methyl)butanoic acid] | ** (The symbol “**” indicates a value in the range of greater than 90 to 150) | – | ** (The symbol “**” indicates a value in the range of greater than 90 to 150)
< 500 | > 10000 | – | O=C(O)CC[C@H]1CN(S(=O)(=O)c2cccc(C(F)(F)F)c2)c2cc(-c3ccc(Cl)cc3Cl)ccc2O1 [Compound 2AB, (S)-3-(6-(2,4-dichlorophenyl)-4-((3-(trifluoromethyl)phenyl)-sulfonyl)-3,4-dihydro-2H-benzo[b][1,4]oxazin-2-yl)propanoic acid] | **** (The symbol “****” indicates a value greater than 200) | ** (The symbol “**” indicates a value in the range of greater than 90 to 150) | –
< 500 | < 500 | – | O=S(=O)(c1cccc(C(F)(F)F)c1)N1C[C@H](CCCO)Oc2ccc(-c3ccc(F)c(F)c3)cc21 [Compound 34B, (S)-3-(6-(3,4-difluorophenyl)-4-((3-(trifluoromethyl)phenyl)-sulfonyl)-3,4-dihydro-2H-benzo[b][1,4]oxazin-2-yl)propan-1-ol] | **** (The symbol “****” indicates a value greater than 200) | * (The symbol “*” indicates a value in the range of 25 to 90) | –
< 500 | < 500 | – | CC(C)c1cccc(S(=O)(=O)N2C[C@H](CNC(=O)C(C)(C)O)Oc3ccc(-c4cc(F)ccc4F)cc32)c1 [Compound 30K, (S)-N-((6-(2,5-difluorophenyl)-4-((3-isopropylphenyl)sulfonyl)-3,4-dihydro-2H-benzo[b][1,4]-oxazin-2-yl)methyl)-2-hydroxy-2-methylpropanamide] | **** (The symbol “****” indicates a value greater than 200) | * (The symbol “*” indicates a value in the range of 25 to 90) | –
< 500 | 5000 to 10000 | – | O=C(O)CC[C@H]1CN(S(=O)(=O)c2cccc(C(F)(F)F)c2)c2cc(-c3cccc4nccn34)ccc2O1 [Compound 4P, (S)-3-(6-(imidazo[1,2-a]pyridin-5-yl)-4-((3-(trifluoromethyl)-phenyl)sulfonyl)-3,4-dihydro-2H-benzo[b][1,4]oxazin-2-yl)propanoic acid] | ** (The symbol “**” indicates a value in the range of greater than 90 to 150) | ** (The symbol “**” indicates a value in the range of greater than 90 to 150) | –
< 500 | < 500 | – | CN(C)S(=O)(=O)NC[C@H]1CN(S(=O)(=O)c2cccc(C(F)(F)F)c2)c2cc(-c3cc(F)ccc3F)ccc2O1 [Compound 45A, ([[(2S)-6-(2,5-difluorophenyl)-4-[[3-(trifluoromethyl)-benzene]-sulfonyl]-3,4-dihydro-2H-1,4-benzoxazin-2-yl]methyl]sulfamoyl)-(dimethyl)amine] | **** (The symbol “****” indicates a value greater than 200) | ** (The symbol “**” indicates a value in the range of greater than 90 to 150) | –
